Results published in patent US6649784B2, “Aspartyl dipeptide ester derivatives and sweeteners” (Ajinomoto Co., Inc., priority 1999, dated 2003).

Experiments:
[1] = times that of sucrose/sugar; reported in WO 94/11391 (b9: compared with 2, 5 and 10% sucrose solutions); cited from earlier work
[2] = organoleptic (sensory) test of sweetening potency; details: for Sweetening potency: value compared with a 4% sucrose aqueous solution
Excerpt: For example, a sweetening potency of N-[N-[3-(3,4-dihydroxyphenyl)-3-methylbutyl]-L-α-aspartyl]-L-phenylalanine 1-methyl ester was approximately 50,000 times (relative to sugar), and a sweetening potency of N-[N-[3-(3,4,5-trihydroxyphenyl)propyl]-L-α-aspartyl]-L-phenylalanine 1-methyl ester was approximately 25,000 times (relative to sugar).
The structures and the results of the sensory test on some aspartyl dipeptide ester derivatives (represented by the following general formula (1)) formed are shown in Table 1.

## COC(=O)[C@H](Cc1ccccc1)NC(=O)[C@H](CC(=O)O)NCCC(C)c1ccccc1 (mixture of isomers) [N-[N-[(RS)-3-phenylbutyl]-L-α-aspartyl]-L-phenylalanine 1-methyl ester]
[1]
  sweetening potency (degree of sweetness): 1,200 times

## COC(=O)[C@H](Cc1ccccc1)NC(=O)[C@H](CC(=O)O)NCCCc1ccc(O)cc1O [Compound 1, N-[N-[3-(2,4-dihydroxyphenyl)propyl]-L-α-aspartyl]-L-phenylalanine 1-methyl Ester]
[2]
  Sweetening potency (relative to sugar): 10,000 times
  Sweetening potency: 10000

## COC(=O)[C@H](Cc1ccccc1)NC(=O)[C@H](CC(=O)O)NCCCc1ccc(O)c(O)c1 [Compound 2, N-[N-[3-(3,4-dihydroxyphenyl)propyl]-L-α-aspartyl]-L-phenylalanine 1-methyl Ester]
[2]
  Sweetening potency (relative to sugar): 15,000 times
  Sweetening potency: 15000

## COC(=O)[C@H](Cc1ccccc1)NC(=O)[C@H](CC(=O)O)NCCCc1ccc(O)c(O)c1O [Compound 3, N-[N-[3-(2,3,4-trihydroxyphenyl)propyl]-L-α-aspartyl]-L-phenylalanine 1-methyl Ester]
[2]
  Sweetening potency (relative to sugar): 10,000 times
  Sweetening potency: 10000

## COC(=O)[C@H](Cc1ccccc1)NC(=O)[C@H](CC(=O)O)NCCCc1cc(O)c(O)c(O)c1 [Compound 4, N-[N-[3-(3,4,5-trihydroxyphenyl)propyl]-L-α-aspartyl]-L-phenylalanine 1-methyl Ester]
[2]; listed as Example 4
  Sweetening potency (relative to sugar): 25,000 times
[2]; listed as N-[N-[3-(3,4,5-trihydroxyphenyl)propyl]-L-α-aspartyl]-L-phenylalanine 1-methyl e
  Sweetening potency (relative to sugar): approximately 25,000 times
[2]
  Sweetening potency: 25000

## COC(=O)[C@H](Cc1ccccc1)NC(=O)[C@H](CC(=O)O)NCCC(C)(C)c1ccc(O)c(O)c1 [Compound 5, N-[N-[3-(3,4-dihydroxyphenyl)-3-methylbutyl]-L-α-aspartyl]-L-phenylalanine 1-methyl Ester]
[2]; listed as Example 5
  Sweetening potency (relative to sugar): 50,000 times
[2]; listed as N-[N-[3-(3,4-dihydroxyphenyl)-3-methylbutyl]-L-α-aspartyl]-L-phenylalanine 1-met
  Sweetening potency (relative to sugar): approximately 50,000 times
[2]
  Sweetening potency: 50000

## COC(=O)[C@H](Cc1ccccc1)NC(=O)[C@H](CC(=O)O)NCCC(C)(C)C [N-[N-(3,3-dimethylbutyl)-L-α-aspartyl]-L-phenylalanine 1-methyl ester]
[1]
  sweetening potency (degree of sweetness): 10,000 times

## COC(=O)[C@H](Cc1ccccc1)NC(=O)[C@H](CC(=O)O)NCCCc1ccccc1 [N-[N-(3-phenylpropyl)-L-α-aspartyl]-L-phenylalanine 1-methyl ester]
[1]
  sweetening potency (degree of sweetness): 1,500 times

## COC(=O)[C@H](Cc1ccccc1)NC(=O)[C@H](CC(=O)O)NCCCc1ccc(O)c(OC)c1 [N-[N-[3-(3-methoxy-4-hydroxyphenyl)propyl]-L-α-aspartyl]-L-phenylalanine 1-methyl ester]
[1]
  sweetening potency (degree of sweetness): 2,500 times
